Results on 33 molecules are retold here after US10774053B2, “HIV protease inhibitors” (Gilead Sciences, Inc., priority 2017, dated 2020).

The structures appear in SMILES notation. pEC50: −log10 of the molar value. Like-named read-outs stand apart in the source and are kept apart here.

The assay deals with HIV-1 (IIIB) in MT-4 cells. Kind of assay: microbe, parasite or virus in culture. Format: cell-based. The settings on record: HIV-1, read-out: MT4 EC50. On the procedure: Compounds were serially diluted (1:3) in DMSO on 384-well polypropylene plates and further diluted 200-fold into complete RPMI media (10% FBS, 1% P/S) using the Biotek Micro Flow and Agilent ECHO acoustic dispenser. Each plate contained up to 8 test compounds, with negative (No Drug Control) and 5 uM AZT positive controls. MT-4 cells were pre-infected with 10 uL of either RPMI (mock-infected) or a fresh 1:250 dilution of an HIV-1 (IIIB) concentrated virus stock. Infected and uninfected MT-4 cells were further diluted in complete RPMI media and added to each plate using a Micro Flow dispenser. After 5 days incubation in a humidified and temperature controlled incubator (37° C.), Cell Titer Glo (Promega) was added to the assay plates to quantify the amount of luciferase.

[1] abbreviates: Human immunodeficiency virus 1, IIIB, MT4, MT-4 cells.

For `CC(C)(C[C@]1(c2ccc(-c3cnn(C4CC4)n3)cc2)NC(=N)N([C@H](COC(=O)NC2(C(F)(F)F)CC2)c2ccc(Cl)c(-c3ncnn3C(F)F)c2)C1=O)C1CC1` [Compound 149], the pEC50 under setting [1] is 7.92.

`CC(C)(C)C[C@]1(c2ccc(-n3nccn3)c(F)c2)NC(=N)N([C@H](COC(=O)NC2(C(F)(F)F)CC2)c2ccc(Cl)c(-n3ncnc3C(F)F)c2)C1=O` [Compound 309]: the pEC50 under setting [1] was 7.87.

With `CC(C)(C)C[C@]1(c2ccc3nc(C(F)F)ccc3c2)NC(=N)N([C@H](COC(=O)NC2(C(F)(F)F)CC2)c2ccc(Cl)c(-n3ncnc3C(F)F)c2)C1=O` [Compound 354], under setting [1], the negative logarithm of the EC50 (pEC50) was 8.30.

As for `C[C@H](CC#N)C[C@]1(c2ccc(-c3cnn(C(F)F)c3)cc2)NC(=N)N([C@H](COC(=O)NC2(C(F)(F)F)CC2)c2ccc(Cl)c(-n3ncnc3C(F)F)c2)C1=O` (single isomer, unassigned) [Compound 347], the negative logarithm of the EC50 (pEC50) under setting [1] was 7.50.

Turning to `CC(C)(C)C[C@]1(c2ccc(-c3cnn(C(F)F)c3)c(F)c2)NC(=N)N([C@H](COC(=O)NCC(C)(F)F)c2ccc(Cl)c(-n3ncnc3C(F)F)c2)C1=O` [Compound 299], the pEC50 under setting [1] was 7.89.

`CC(C)(C)C[C@]1(c2ccc(-c3cnn(C4CC4)c3)c(F)c2)NC(=N)N([C@H](COC(=O)NC2(C(F)(F)F)CC2)c2ccc(Cl)c(-c3ncnn3C(F)F)c2)C1=O` [Compound 144]: under setting [1], the negative-log EC50 (pEC50) is 8.10.

Regarding `CC(C)(C)C[C@]1(c2ccc(-c3ccn(C(F)F)n3)cc2F)NC(=N)N([C@H](COC(=O)NC2(C(F)(F)F)CC2)c2ccc(Cl)c(-n3ncnc3C(F)F)c2)C1=O` [Compound 285], the negative-log EC50 (pEC50) under setting [1] is 7.78.

For `CC(C)(C)C[C@]1(c2ccc(-c3cnn(C(F)F)c3)cc2)NC(=N)N([C@H](COC(=O)NC2(C(F)(F)F)CC2)c2cc(F)c(Cl)c(-n3ncnc3C(F)F)c2)C1=O` [Compound 192], under setting [1], the negative-log EC50 (pEC50) was 7.21.

For `CC(C)(C)C[C@]1(c2ccc(-c3cnn(C(F)F)c3)cc2)NC(=N)N([C@H](COC(=O)NC(C)(C)C)c2ccc(Cl)c(-c3ncn[nH]3)c2)C1=O` [Compound 68], under setting [1], the pEC50 is 7.67.

As to `CN(C)C(=O)OC[C@H](c1ccc(Cl)c(-c2ncc(-c3ccccc3)s2)c1)N1C(=N)N[C@@](c2cc(F)cc(F)c2)(C2CC2)C1=O` [Compound 2], under setting [1], the negative logarithm of the EC50 (pEC50) was 5.52.

For the molecule `CC(C)(C)C[C@]1(c2ccc(-c3cnn(C(F)F)c3)cc2)NC(=N)N([C@H](COC(=O)N[C@H]2C[C@@H]2C(F)F)c2ccc(Cl)c(-n3ncnc3C(F)F)c2)C1=O` [Compound 332], the negative-log EC50 (pEC50) under setting [1] was 7.91.

For the molecule `[H]/N=C1\N[C@](CC(C)(C)C)(c2ccc(-c3cnn(C(F)F)c3)cc2)C(=O)N1[C@H](COC(=O)NC1CC1)c1ccc(Cl)c(-c2ncc[nH]2)c1` [Compound 16], the negative-log EC50 (pEC50) under setting [1] is 7.94.

Take `CC(C)(C)C[C@]1(c2ccc(-c3ccc(F)cn3)cc2)NC(=N)N([C@H](COC(=O)NC2(C(F)(F)F)CC2)c2ccc(Cl)c(-n3ncnc3C(F)F)c2)C1=O` [Compound 274]: the pEC50 under setting [1] was 7.95.

As to `CC(C)(C)C[C@]1(c2ccc(-c3cnn(C(F)F)c3)cc2)NC(=N)N([C@H](COC(=O)NC(C)(C)C(F)F)c2ccc(Cl)c(-c3ncn(C(F)F)n3)c2)C1=O` [Compound 69], the pEC50 under setting [1] was 7.49.

For `CC(C)(C)C[C@]1(c2ccc(-c3cnn(C(F)F)c3)cc2)NC(=N)N([C@H](COC(=O)N2CC3(COC3)C2)c2ccc(Cl)c(-c3ncn[nH]3)c2)C1=O` [Compound 82], the negative logarithm of the EC50 (pEC50) under setting [1] was 6.74.

`[H]/N=C1\N[C@](CC(C)(C)C)(c2ccc(-c3cnn(C(F)F)c3)cc2)C(=O)N1[C@H](COC(=O)NC1CC1)c1ccc(Cl)c(-c2nnc(C3CC3)s2)c1` [Compound 44]: the negative logarithm of the EC50 (pEC50) under setting [1] is 6.61.

Consider `CC(C)(C)C[C@]1(c2ccc(-c3cnn(C(F)F)c3)cc2)NC(=N)N([C@H](COC(=O)N2CC(F)(F)C2)c2ccc(Cl)c(-c3ncn[nH]3)c2)C1=O` [Compound 67], for which the pEC50 under setting [1] is 7.68.

Regarding `CC(C)(C)C[C@]1(c2ccc(-c3cnn(C(F)F)c3)cc2)NC(=N)N([C@H](COC(=O)NC2CC2)c2ccc(Cl)c(-c3ncnn3C(F)F)c2)C1=O` [Compound 35], the negative logarithm of the EC50 (pEC50) under setting [1] was 7.01.

Take `CC(C)(C)C[C@]1(c2ccc(-c3cnn(C(F)F)c3)cc2)NC(=N)N([C@H](COC(=O)NCC(F)F)c2ccc(Cl)c(-n3ncnc3C(F)F)c2)C1=O` [Compound 219]: the pEC50 under setting [1] is 8.06.

For the molecule `CC(C)(C)C[C@]1(c2ccc(-c3cnn(C4CC4)c3)c(F)c2)NC(=N)N([C@H](COC(=O)NC2(C(F)(F)F)CC2)c2ccc(Cl)c(-n3ncnc3C(F)F)c2)C1=O` [Compound 306], the pEC50 under setting [1] was 7.96.

Regarding `CC(C)(C)C[C@]1(c2ccc(-c3ncon3)cc2)NC(=N)N([C@H](COC(=O)NC2(C(F)(F)F)CC2)c2ccc(Cl)c(-n3cncn3)c2)C1=O` [Compound 378], the pEC50 under setting [1] is 7.45.

As for `CC(C)(C)C[C@]1(c2ccc(-c3cnn(C(F)F)c3)cc2)NC(=N)N([C@H](COC(=O)N[C@H]2C[C@H]2F)c2ccc(Cl)c(-n3ncnc3C(F)F)c2)C1=O` [Compound 288], the negative logarithm of the EC50 (pEC50) under setting [1] was 8.22.

For `CC(C)(C)C[C@H]1C(=O)N([C@H](COC(=O)NC(C)(C)C(F)F)c2ccc(F)c(-c3ncnn3C(F)F)c2)C(=N)N1c1ccc(-c2cnn(C(F)F)c2)cc1` [Compound 124], under “MT-4 cells”, the pEC50 is 7.19.

As to `CC(C)(C)C[C@]1(c2ccc(-c3cnn(C(F)F)c3)cc2)NC(=N)N([C@H](COC(=O)NC2(C(F)(F)F)CC2)c2ccc(F)c(-c3ncnn3C(F)F)c2)C1=O` [Compound 123], under setting [1], the negative-log EC50 (pEC50) is 7.55.

As for `CC(C)(C)C[C@]1(c2ccc(-n3nccn3)cc2)NC(=N)N([C@H](COC(=O)NC2(C(F)(F)F)CC2)c2ccc(Cl)c(-n3ncnc3C(F)F)c2)C1=O` [Compound 226], the negative-log EC50 (pEC50) under setting [1] is 7.98.

As to `CC(C)(C)C[C@]1(c2ccc(-c3ccccn3)cc2F)NC(=N)N([C@H](COC(=O)NC2(C(F)(F)F)CC2)c2ccc(Cl)c(-c3ncn[nH]3)c2)C1=O` [Compound 116], the pEC50 under setting [1] is 7.37.

In the case of `CC(C)(C)C[C@]1(c2ccc(-c3cnn(C(F)F)c3)c(F)c2)NC(=N)N([C@H](COC(=O)N[C@H]2CC2(F)F)c2ccc(Cl)c(-n3ncnc3C(F)F)c2)C1=O` [Compound 340], the pEC50 under setting [1] was 8.18.

With `CC(C)(C)C[C@]1(c2ccc(-c3cnn(C(F)F)c3)cc2)NC(=N)N([C@H](COC(=O)NC2(C(F)F)CC2)c2ccc(Cl)c(-c3ncn[nH]3)c2)C1=O` [Compound 93], the negative-log EC50 (pEC50) under setting [1] was 6.98.

In the case of `CC(C)(C)C[C@]1(c2ccc(-c3cn(C4CC4)nc3F)cc2)NC(=N)N([C@H](COC(=O)NC2(C(F)(F)F)CC2)c2ccc(Cl)c(-n3ncnc3C(F)F)c2)C1=O` [Compound 318], the negative logarithm of the EC50 (pEC50) under setting [1] was 7.88.

As to `CN(C)C(=O)OC[C@H](c1ccc(Cl)c(-c2ncc(N3CCOCC3)s2)c1)N1C(=N)N[C@@](c2cc(F)cc(F)c2)(C2CC2)C1=O` [Compound 3], the pEC50 under setting [1] was 5.24.

As for `CC(C)(C)C[C@]1(c2ccc(-c3cnn(C(F)F)c3)cc2)NC(=N)N([C@H](COC(=O)NC2CC2)c2ccc(Cl)c(-c3ncnn3C3CC3)c2)C1=O` [Compound 38], the pEC50 under setting [1] is 8.01.

As for `CC(C)(C)C[C@]1(c2ccc(-c3cnn(C4COC4)c3)cc2)NC(=N)N([C@H](COC(=O)NC(C)(C)C)c2ccc(Cl)c(-c3ncn[nH]3)c2)C1=O` [Compound 106], under setting [1], the pEC50 is 7.00.

Regarding `COc1ccc([C@@]2(CC(C)(C)C)NC(=N)N([C@H](COC(=O)N(C)C)c3ccc(Cl)c(-c4ccccn4)c3)C2=O)c(F)c1` [Compound 8], the negative-log EC50 (pEC50) under setting [1] was 6.56.

Usually pEC50 stands for the EC50 on a negative log10 scale, so that one unit is a factor of ten.
